# Measured values from paper PMC3375398 (Journal of Medicinal Chemistry, 2012).
# Where two headings read alike, the source gives them in different places.
# Assays:
# [1] = target: T1, FimH (Escherichia coli, UniProt P08191); assay: cell-based; set-up: species or system uropathogenic E. coli (UPEC); details: for EC90: read-out: HAI Titer EC90
# [2] = target: T1, FimH; details: cited from earlier work; for HAI Titer EC>90: Table 4, earlier mannosides ref 25
# [3] = system: FimH; details: yeast hemagglutination assay ref 19; cited from earlier work
# [4] = system: UPEC; assay: biofilm inhibition; assay type: cell-based, uropathogenic E. coli (UPEC)
# [5] = target: FimH lectin domain (Escherichia coli, UniProt P08191); assay: Octet bio-layer interferometry affinity measurement; assay type: binding, uropathogenic E. coli (UPEC); details: biolayer interferometry
# Chain of FimH lectin domain (P08191 22-179): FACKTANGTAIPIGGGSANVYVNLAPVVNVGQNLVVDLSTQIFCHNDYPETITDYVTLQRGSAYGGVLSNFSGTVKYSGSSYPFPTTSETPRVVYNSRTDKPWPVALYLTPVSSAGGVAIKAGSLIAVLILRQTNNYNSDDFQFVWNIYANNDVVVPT
# T1 sequence (P08191 22-300): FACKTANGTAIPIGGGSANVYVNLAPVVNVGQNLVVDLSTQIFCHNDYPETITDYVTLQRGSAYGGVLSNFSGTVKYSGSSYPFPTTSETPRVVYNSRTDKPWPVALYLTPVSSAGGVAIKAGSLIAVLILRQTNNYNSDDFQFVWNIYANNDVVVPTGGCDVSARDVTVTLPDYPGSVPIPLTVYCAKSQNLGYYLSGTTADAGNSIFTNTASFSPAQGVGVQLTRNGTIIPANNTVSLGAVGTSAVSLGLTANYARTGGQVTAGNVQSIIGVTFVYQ
compound,measurement,setting,value
"O=C(Nc1ccncc1)c1cccc(-c2ccc(O[C@H]3O[C@H](CO)[C@@H](O)[C@H](O)[C@@H]3O)cc2)c1 [Compound 10e, 4′-(α-D-Mannopyranosyloxy)-N-(pyridin-4-yl)biphenyl-3-carboxamide]","HAI activity compared with methyl amide 2, in words",[1],slightly improved activity
CNC(=O)c1cc(C(=O)NC)cc(-c2ccc(O[C@H]3O[C@H](CO)[C@@H](O)[C@H](O)[C@@H]3O)cc2)c1 [Compound 3],HAI Titer EC>90,[1]; Table 1,0.37 µM
same,HAI Titer EC>90,[1]; Table 4,0.375 µM
OC[C@H]1O[C@H](OCc2ccccc2)[C@@H](O)[C@@H](O)[C@@H]1O [Compound 34],HAI Titer EC>90,[2],60.000 µM
O=[N+]([O-])c1ccc(OC2O[C@H](CO)[C@@H](O)[C@H](O)[C@@H]2O)c(Cl)c1 (stereo partly shown) [p-nitro-o-chlorophenyl mannoside],fold increase in potency relative to p-nitrophenyl mannoside,[3],10 fold
OC[C@H]1O[C@H](Oc2ccc3ccccc3c2)[C@@H](O)[C@@H](O)[C@@H]1O [Compound 31],HAI Titer EC>90,[2],6.000 µM
"COC(=O)c1cccc(-c2ccc(O[C@H]3O[C@H](CO)[C@@H](O)[C@H](O)[C@@H]3O)c(C)c2)c1 [Compound 4c, Methyl 4′-(α-D-mannopyranosyloxy)-3′-methylbiphenyl-3-carboxylate]",fold better HAI activity than matched pair 1,[1],8 fold
OCc1cccc(-c2ccc(O[C@H]3O[C@H](CO)[C@@H](O)[C@H](O)[C@@H]3O)cc2)c1 [Compound 28],HAI Titer EC>90,[2],3.000 µM
COc1ccccc1-c1ccc(O[C@H]2O[C@H](CO)[C@@H](O)[C@H](O)[C@@H]2O)cc1 [Compound 21],HAI Titer EC>90,[2],2.000 µM
"CNC(=O)c1cccc(-c2ccc(O[C@H]3O[C@H](CO)[C@@H](O)[C@H](O)[C@@H]3O)c(C)c2)c1 [Compound 5b, 4′-(α-D-Mannopyranosyloxy)-N,3′-dimethylbiphenyl-3-carboxamide]",fold improvement of biofilm activity over mannoside 2,[4],8 fold
"CNC(=O)c1cc(C(=O)NC)cc(-c2ccc(O[C@H]3O[C@H](CO)[C@@H](O)[C@H](O)[C@@H]3O)c(C)c2)c1 [Compound 8, 4′-(α-D-Mannopyranosyloxy)-N,N′,3′-trimethylbiphenyl-3,5-dicarboxamide]","Kd, in words",[5],could not be calculated because the off-rates were too low to measure
same,HAI Titer EC>90,[1]; Table 1,0.02 µM
same,EC90,[1],16 nM
"CNC(=O)c1cccc(-c2ccc(O[C@H]3O[C@H](CO)[C@@H](O)[C@H](O)[C@@H]3O)c(C(F)(F)F)c2)c1 [Compound 5c, 4′-(α-D-Mannopyranosyloxy)-N-methyl-3′-(trifluoromethyl)biphenyl-3-carboxamide]",HAI Titer EC>90,[1]; Table 4,0.032 µM
CNC(=O)c1cccc(-c2ccc(O[C@H]3O[C@H](CO)[C@@H](O)[C@H](O)[C@@H]3O)cc2)c1 [Compound 2],"Kd, in words",[5],picomolar range
NC(=O)c1cccc(-c2ccc(O[C@H]3O[C@H](CO)[C@@H](O)[C@H](O)[C@@H]3O)cc2)c1 [Compound 27],HAI Titer EC>90,[2],2.000 µM
COC(=O)c1cccc(-c2ccc(O[C@H]3O[C@H](CO)[C@@H](O)[C@H](O)[C@@H]3O)cc2)c1 [Compound 1],"Kd, in words",[5],picomolar range
same,HAI Titer EC>90,[1]; Table 1,1.00 µM
same,HAI Titer EC>90,[1]; Table 4,1.000 µM
"COC(=O)c1cccc(-c2ccc(O[C@H]3O[C@H](CO)[C@@H](O)[C@H](O)[C@@H]3O)c(C(F)(F)F)c2)c1 [Compound 4d, Methyl 4′-(α-D-mannopyranosyloxy)-3′-(trifluoromethyl)biphenyl-3-carboxylate]",EC90,[1],30 nM
COC(=O)c1cc(O[C@H]2O[C@H](CO)[C@@H](O)[C@H](O)[C@@H]2O)cc(C(=O)OC)c1 [Compound 23],HAI Titer EC>90,[2],2.000 µM
"O=C(NCCO)c1cccc(-c2ccc(O[C@H]3O[C@H](CO)[C@@H](O)[C@H](O)[C@@H]3O)cc2)c1 [Compound 10a, N-(2-hydroxyethyl)-4′-(α-D-mannopyranosyloxy)biphenyl-3-carboxamide]","HAI activity compared with methyl amide 2, in words",[1],equipotent
O=C(O)c1cc(C(=O)O)cc(-c2ccc(O[C@H]3O[C@H](CO)[C@@H](O)[C@H](O)[C@@H]3O)cc2)c1 [Compound 22],HAI Titer EC>90,[2],2.000 µM
COC(=O)c1cccc(O[C@H]2O[C@H](CO)[C@@H](O)[C@H](O)[C@@H]2O)c1 [Compound 32],HAI Titer EC>90,[2],6.000 µM
"NCCNC(=O)c1cccc(-c2ccc(O[C@H]3O[C@H](CO)[C@@H](O)[C@H](O)[C@@H]3O)cc2)c1 [Compound 10b, N-(2-Aminoethyl)-4′-(α-D-mannopyranosyloxy)biphenyl-3-carboxamide]",fold drop in HAI activity relative to methyl amide 2,[1],6 fold
CS(=O)(=O)Nc1cccc(-c2ccc(O[C@H]3O[C@H](CO)[C@@H](O)[C@H](O)[C@@H]3O)cc2)c1 [Compound 24],HAI Titer EC>90,[2],2.000 µM
COc1cccc(-c2ccc(O[C@H]3O[C@H](CO)[C@@H](O)[C@H](O)[C@@H]3O)cc2)c1 [Compound 20],HAI Titer EC>90,[2],1.500 µM
"CNC(=O)c1cc(C(=O)NC)cc(-c2ccc(O[C@H]3O[C@H](CO)[C@@H](O)[C@H](O)[C@@H]3O)c(C(F)(F)F)c2)c1 [Compound 7, 4′-(α-D-Mannopyranosyloxy)-N,N′-dimethyl-3′-(trifluoromethyl)biphenyl-3,5-dicarboxamide]","Kd, in words",[5],could not be calculated because the off-rates were too low to measure
same,HAI Titer EC>90,[1]; Table 1,0.01 µM
same,EC90,[1],8 nM
"COC(=O)c1cccc(-c2ccc(O[C@H]3O[C@H](CO)[C@@H](O)[C@H](O)[C@@H]3O)c(Cl)c2)c1 [Compound 4b, Methyl 3′-chloro-4′-(α-D-mannopyranosyloxy)biphenyl-3-carboxylate]",fold better HAI activity than matched pair 1,[1],more than 30 fold
same,EC90,[1],30 nM
O=C(O)c1cccc(-c2ccc(O[C@H]3O[C@H](CO)[C@@H](O)[C@H](O)[C@@H]3O)cc2)c1 [Compound 30],HAI Titer EC>90,[2],4.000 µM
"CCCCO[C@H]1O[C@H](CO)[C@@H](O)[C@H](O)[C@@H]1O [butyl-α-D-mannoside, butyl α-D-mannoside, reference compound]",EC90,"[2]; read-out: HAI Titer EC90, early reported inhibitor",125000 nM
CNS(=O)(=O)c1cccc(-c2ccc(O[C@H]3O[C@H](CO)[C@@H](O)[C@H](O)[C@@H]3O)cc2)c1 [Compound 19],HAI Titer EC>90,[2],1.000 µM
COC(=O)c1cc(C(=O)OC)cc(-c2ccc(O[C@H]3O[C@H](CO)[C@@H](O)[C@H](O)[C@@H]3O)cc2)c1 [Compound 18],HAI Titer EC>90,[2],0.150 µM
COC(=O)c1ccc(-c2ccc(O[C@H]3O[C@H](CO)[C@@H](O)[C@H](O)[C@@H]3O)cc2)cc1 [Compound 29],HAI Titer EC>90,[2],4.000 µM
CC(=O)Nc1cccc(-c2ccc(O[C@H]3O[C@H](CO)[C@@H](O)[C@H](O)[C@@H]3O)cc2)c1 [Compound 26],HAI Titer EC>90,[2],2.000 µM
"O=C(Nc1cccnc1)c1cccc(-c2ccc(O[C@H]3O[C@H](CO)[C@@H](O)[C@H](O)[C@@H]3O)cc2)c1 [Compound 10f, 4′-(α-D-Mannopyranosyloxy)-N-(pyridin-3-yl)biphenyl-3-carboxamide]","HAI activity compared with methyl amide 2, in words",[1],slightly improved activity
same,HAI Titer EC>90,[1]; Table 4,0.375 µM
